The record followed here is patent US12319709B2, “Diaryl trehalose compounds and uses thereof” (THE UNIVERSITY OF MONTANA, priority 2018, dated 2025).

One experiment concerns RAW264.7 cells. Nature of the experiment: Cytokine (TNFα) response of mouse macrophage cell line; Table 2 'Murine'. Format: cell-based. More on the design: Maximum cytokine response Murine: unit not given here. The note with it: NR = no response. How it is done: Compounds were also tested in a mouse macrophage cell line (FIG. 4B). RAW264.7 cells were subjected to increasing concentrations of the compounds and assessed for production of the cytokine TNFα.

Experiment [1] has as its system peripheral blood mononuclear cells (PBMCs). Nature of the experiment: IL-6 induction in fresh human PBMCs. The note with it: human IL-6; NR = no response. It counts as cell-based. How it is done:
Tumor necrosis factor alpha (TNFα) and IL-6 production in peripheral blood mononuclear cells (PBMCs) was measured after exposure to various concentrations of the DAT compounds synthesized as shown above. Initial studies focused on two different methods of delivery of the DAT compounds to PBMC cultures. In the first delivery method, the indicated derivative compound was dissolved in isopropanol, serially diluted, and then dried to the bottom of a tissue culture plate. In the second delivery method, the indicated derivative compound was dissolved in DMSO and serially diluted into tissue culture media. In each method, PBMCs were added to the compounds and incubated at 37° C. TNFα (FIG. 1A) and IL-6 (FIG. 1B) were measured after 18-24 hours after treatment by ELISA assay.
The isolated PBMCs were exposed to increasing concentrations of the indicated compounds resuspended in DMSO and serially diluted in media. IL-6 levels were determined from supernatants eighteen hours after treatment (FIG. 3).

In the case of `Cc1ccccc1-c1cccc(C(=O)OC[C@H]2O[C@H](O[C@H]3O[C@H](COC(=O)c4cccc(-c5ccccc5C)c4)[C@@H](O)[C@H](O)[C@H]3O)[C@H](O)[C@@H](O)[C@@H]2O)c1` [UM1041], in the experiment on RAW264.7 cells, the “Maximum cytokine response Murine” value was determined as 1.2 and the “Minimal Effective Concentration Murine” value was 33 µM. For the same molecule, in experiment [1], the “Maximum cytokine response h-IL-6” value amounted to 1.3 OD and the “Minimal Effective Concentration h-IL-6” value is 5 µM.
Regarding `O=C(OC[C@H]1O[C@H](O[C@H]2O[C@H](COC(=O)c3ccccc3C(F)(F)F)[C@@H](O)[C@H](O)[C@H]2O)[C@H](O)[C@@H](O)[C@@H]1O)c1ccccc1C(F)(F)F` [UM1042], in the experiment with RAW264.7 cells, the “Maximum cytokine response Murine” value came out at 0.9 and the “Minimal Effective Concentration Murine” value turned out to be 11 µM. Moreover, in experiment [1], the “Maximum cytokine response h-IL-6” value is listed as 2 OD and the “Minimal Effective Concentration h-IL-6” value is 50 µM.
In the case of `CC(C)(C)c1cc(C(C)(C)C)c(O)c(C(=O)OC[C@H]2O[C@H](O[C@H]3O[C@H](COC(=O)c4c(O)c(C(C)(C)C)cc(C(C)(C)C)c4O)[C@@H](O)[C@H](O)[C@H]3O)[C@H](O)[C@@H](O)[C@@H]2O)c1O` [UM1046], in the experiment with RAW264.7 cells, the “Maximum cytokine response Murine” value worked out at 0.8 and the “Minimal Effective Concentration Murine” value was 0.4 µM. In experiment [1], the “Maximum cytokine response h-IL-6” value was found to be 3 OD and the “Minimal Effective Concentration h-IL-6” value was 20 µM.
As for `CC(C)(C)c1cc(C(=O)OC[C@H]2O[C@H](O[C@H]3O[C@H](COC(=O)c4cc(C(C)(C)C)cc(C(C)(C)C)c4)[C@@H](O)[C@H](O)[C@H]3O)[C@H](O)[C@@H](O)[C@@H]2O)cc(C(C)(C)C)c1` [UM1047], in the experiment on RAW264.7 cells, the “Maximum cytokine response Murine” value is given as 0.9 and the “Minimal Effective Concentration Murine” value is 1.2 µM. Also, in experiment [1], the “Maximum cytokine response h-IL-6” value was 1 OD and the “Minimal Effective Concentration h-IL-6” value stood at 11 µM.
Take `CCOc1cc(C(=O)OCC2OC(OC3OC(COC(=O)c4cc(OCC)c(OCC)c(OCC)c4)C(O)C(O)C3O)C(O)C(O)C2O)cc(OCC)c1OCC` (stereo not drawn) [UM1049]: in the experiment on RAW264.7 cells, the “Maximum cytokine response Murine” value stood at 1.3 and the “Minimal Effective Concentration Murine” value was determined as 0.13 µM. In experiment [1], the “Maximum cytokine response h-IL-6” value was 3.3 OD and the “Minimal Effective Concentration h-IL-6” value amounted to 2 µM.
In the case of `CCCCOc1cc(OCCCC)cc(C(=O)OC[C@H]2O[C@H](O[C@H]3O[C@H](COC(=O)c4cc(OCCCC)cc(OCCCC)c4)[C@@H](O)[C@H](O)[C@H]3O)[C@H](O)[C@@H](O)[C@@H]2O)c1` [UM1051], in the experiment on RAW264.7 cells, the “Maximum cytokine response Murine” value is listed as 1.3 and the “Minimal Effective Concentration Murine” value was 0.13 µM. Besides, in experiment [1], the “Maximum cytokine response h-IL-6” value was 2.5 OD and the “Minimal Effective Concentration h-IL-6” value was found to be 6 µM.
As for `CCCCCOc1cc(OCCCCC)cc(C(=O)OC[C@H]2O[C@H](O[C@H]3O[C@H](COC(=O)c4cc(OCCCCC)cc(OCCCCC)c4)[C@@H](O)[C@H](O)[C@H]3O)[C@H](O)[C@@H](O)[C@@H]2O)c1` [UM1052], in the experiment on RAW264.7 cells, the “Maximum cytokine response Murine” value was found to be 1.3 and the “Minimal Effective Concentration Murine” value stood at 0.13 µM. In addition, in experiment [1], the “Maximum cytokine response h-IL-6” value is 3.3 OD and the “Minimal Effective Concentration h-IL-6” value is 0.08 µM.
Consider `O=C(OC[C@H]1O[C@H](O[C@H]2O[C@H](COC(=O)c3ccc(-c4ccccc4)cc3O)[C@@H](O)[C@H](O)[C@H]2O)[C@H](O)[C@@H](O)[C@@H]1O)c1ccc(-c2ccccc2)cc1O` [UM1062], for which, in the experiment with RAW264.7 cells, the “Maximum cytokine response Murine” value is 3 and the “Minimal Effective Concentration Murine” value was found to be 100 µM. In experiment [1], the “Maximum cytokine response h-IL-6” value was determined as 3 OD and the “Minimal Effective Concentration h-IL-6” value was 100 µM.
In the case of `O=C(OC[C@H]1O[C@H](O[C@H]2O[C@H](COC(=O)c3c(C(F)(F)F)cccc3C(F)(F)F)[C@@H](O)[C@H](O)[C@H]2O)[C@H](O)[C@@H](O)[C@@H]1O)c1c(C(F)(F)F)cccc1C(F)(F)F` [UM1065], in the experiment on RAW264.7 cells, the “Maximum cytokine response Murine” value came to 2.5 and the “Minimal Effective Concentration Murine” value turned out to be 100 µM. In experiment [1], the “Maximum cytokine response h-IL-6” value was found to be 3 OD and the “Minimal Effective Concentration h-IL-6” value came out at 3.7 µM.
For the molecule `O=C(OC[C@H]1O[C@H](O[C@H]2O[C@H](COC(=O)c3cc(C(F)(F)F)ccc3C(F)(F)F)[C@@H](O)[C@H](O)[C@H]2O)[C@H](O)[C@@H](O)[C@@H]1O)c1cc(C(F)(F)F)ccc1C(F)(F)F` [UM1066], in the experiment on RAW264.7 cells, the “Maximum cytokine response Murine” value is reported as 3 and the “Minimal Effective Concentration Murine” value is 100 µM. Also, in experiment [1], the “Maximum cytokine response h-IL-6” value stood at 2.6 OD and the “Minimal Effective Concentration h-IL-6” value amounted to 33.3 µM.
Consider `COc1ccc(-c2ccc(C(=O)OC[C@H]3O[C@H](O[C@H]4O[C@H](COC(=O)c5ccc(-c6ccc(OC)cc6)cc5)[C@@H](O)[C@H](O)[C@H]4O)[C@H](O)[C@@H](O)[C@@H]3O)cc2)cc1` [UM1070], for which, in the experiment on RAW264.7 cells, the “Maximum cytokine response Murine” value was determined as 2 and the “Minimal Effective Concentration Murine” value was found to be 100 µM. Besides, in experiment [1], the “Maximum cytokine response h-IL-6” value was found to be 3 OD and the “Minimal Effective Concentration h-IL-6” value is 33.3 µM.
For `Cc1cccc(Nc2ccccc2C(=O)OC[C@H]2O[C@H](O[C@H]3O[C@H](COC(=O)c4ccccc4Nc4cccc(C)c4C)[C@@H](O)[C@H](O)[C@H]3O)[C@H](O)[C@@H](O)[C@@H]2O)c1C` [UM1074] the same measures were 2, 1.2 µM, 3.5 OD and 33.3 µM.
With `O=C(OC[C@H]1O[C@H](O[C@H]2O[C@H](COC(=O)c3ccccc3Nc3ccccc3)[C@@H](O)[C@H](O)[C@H]2O)[C@H](O)[C@@H](O)[C@@H]1O)c1ccccc1Nc1ccccc1` [UM1075], in the experiment on RAW264.7 cells, the “Maximum cytokine response Murine” value turned out to be 2.2 and the “Minimal Effective Concentration Murine” value was 3.7 µM. In experiment [1], the “Maximum cytokine response h-IL-6” value is on record as 3.5 OD and the “Minimal Effective Concentration h-IL-6” value amounted to 20 µM.
Regarding `O=C(OC[C@H]1O[C@H](O[C@H]2O[C@H](COC(=O)c3cc([N+](=O)[O-])cc([N+](=O)[O-])c3)[C@@H](O)[C@H](O)[C@H]2O)[C@H](O)[C@@H](O)[C@@H]1O)c1cc([N+](=O)[O-])cc([N+](=O)[O-])c1` [UM1080], in the experiment with RAW264.7 cells, the “Maximum cytokine response Murine” value is on record as 1 and the “Minimal Effective Concentration Murine” value was determined as 33 µM. In experiment [1], the “Maximum cytokine response h-IL-6” value came to 2 OD and the “Minimal Effective Concentration h-IL-6” value was 100 µM.
The matching figures for `COc1cc(Br)c(CC(=O)OC[C@H]2O[C@H](O[C@H]3O[C@H](COC(=O)Cc4cc(OC)c(OC)cc4Br)[C@@H](O)[C@H](O)[C@H]3O)[C@H](O)[C@@H](O)[C@@H]2O)cc1OC` [UM1082]: 1.7, 33 µM, 0.5 OD and 100 µM.
As to `O=C(OC[C@H]1O[C@H](O[C@H]2O[C@H](COC(=O)c3ccc(C(F)(F)F)cc3C(F)(F)F)[C@@H](O)[C@H](O)[C@H]2O)[C@H](O)[C@@H](O)[C@@H]1O)c1ccc(C(F)(F)F)cc1C(F)(F)F` [UM1084], in the experiment on RAW264.7 cells, the “Maximum cytokine response Murine” value was determined as 2.9 and the “Minimal Effective Concentration Murine” value was 33 µM. For the same molecule, in experiment [1], the “Maximum cytokine response h-IL-6” value came to 3 OD and the “Minimal Effective Concentration h-IL-6” value came to 100 µM.
The matching figures for `Cc1ccc(C(=O)OC[C@H]2O[C@H](O[C@H]3O[C@H](COC(=O)c4ccc(C)cc4C(F)(F)F)[C@@H](O)[C@H](O)[C@H]3O)[C@H](O)[C@@H](O)[C@@H]2O)c(C(F)(F)F)c1` [UM1085]: 2.2, 33 µM, 3 OD and 100 µM.
The matching figures for `CC(C)(C)c1cc(CCC(=O)OC[C@H]2O[C@H](O[C@H]3O[C@H](COC(=O)CCc4cc(C(C)(C)C)c(O)c(C(C)(C)C)c4)[C@@H](O)[C@H](O)[C@H]3O)[C@H](O)[C@@H](O)[C@@H]2O)cc(C(C)(C)C)c1O` [UM1086]: 3, 0.13 µM, 3 OD and 33.3 µM.
For the molecule `CC(C)(C)c1cc(C(=O)OC[C@H]2O[C@H](O[C@H]3O[C@H](COC(=O)c4cc(C(C)(C)C)c(O)c(C(C)(C)C)c4)[C@@H](O)[C@H](O)[C@H]3O)[C@H](O)[C@@H](O)[C@@H]2O)cc(C(C)(C)C)c1O` [UM1087], in the experiment with RAW264.7 cells, the “Maximum cytokine response Murine” value is 3 and the “Minimal Effective Concentration Murine” value worked out at 0.13 µM. Moreover, in experiment [1], the “Maximum cytokine response h-IL-6” value is 3 OD and the “Minimal Effective Concentration h-IL-6” value turned out to be 33.3 µM.
For `CC(C)(C)c1cc(C(=O)NC[C@H]2O[C@H](O[C@H]3O[C@H](CNC(=O)c4cc(C(C)(C)C)cc(C(C)(C)C)c4O)[C@@H](O)[C@H](O)[C@H]3O)[C@H](O)[C@@H](O)[C@@H]2O)c(O)c(C(C)(C)C)c1` [UM1088] the same measures were 1.3, 0.4 µM, 3.5 OD and 2.5 µM.
With `CCCCCCOc1cc(OCCCCCC)cc(C(=O)OC[C@H]2O[C@H](O[C@H]3O[C@H](COC(=O)c4cc(OCCCCCC)cc(OCCCCCC)c4)[C@@H](O)[C@H](O)[C@H]3O)[C@H](O)[C@@H](O)[C@@H]2O)c1` [UM1092], in the experiment with RAW264.7 cells, the “Maximum cytokine response Murine” value is reported as “<.001” and the “Minimal Effective Concentration Murine” value came to 3.4 µM. In addition, in experiment [1], the “Maximum cytokine response h-IL-6” value was 3.3 OD and the “Minimal Effective Concentration h-IL-6” value stood at 3.7 µM.
